Experimental data taken from patent US4818684A, “Auto-anti-idiotypic monoclonal antibodies to steroid receptors and uses thereof” (The Trustees of Columbia University in the City of New York, priority 1985, dated 1989).

Columns and labels:
[1] = target: antisteroid Fab fragments; assay: Competitive inhibition of binding of [3H] triamcinolone to antisteroid Fab fragments; conditions: read-out: Competitive inhibition of binding of [3H] triamcinolone, Rabbit serum 541 Fab fragments (apparent Kd)
Method: To the dialysate was added 0.1 M dithiothreitol (DTT) (15 microliters) EDTA (2 mg) and 0.2 mg mercuripapain (5 microliters) and the solution was incubated overnight at 37° C. It was then dialyzed against 4 l distilled H2 O for 3 hrs and then against 1 liter of PBS for 2 hrs and then applied to a Sephadex G100 column (1×5×90 cms) and eluted (±5 ml/hr) with 0.01 M PBS pH 7.4. One ml fractions were collected. Fractions 53-79 were combined and examined at 280 nm for protein content. Undigested IgG and Fc fragments were removed by passage through a protein A Sepharose column (5 ml bed volume); unbound Fab was eluted with 0.01 M PBS pH 7.4. The eluate was concentrated by vacuum dialysis.

[2] = target: affinity purified antisteroid; assay: Competitive inhibition of binding of [3H] triamcinolone to affinity purified antisteroid; set-up: species or system rabbit; conditions: for Kd: read-out: Competitive inhibition of binding of [3H] triamcinolone, Affinity purified (apparent Kd)
Method: Thirty to 40 ml of serum obtained in part (a) of this example were passed slowly (±3.5 ml/hr) through the AH-Sepharose 4B triamcinolone column prepared according to (b) above. After washing with PBS to remove all unbound protein, the antibody was eluted with 0.2 M glycine pH 2.2 or 2.8. The eluate was dialyzed against 2 liters, 0.01 M PBS buffer pH 7.4 and the buffer changed at least 4 times before concentrating by vacuum dialysis at 4° C.
the glucocorticoid receptor, unprocessed rabbit serum 540, affinity
purified antisteroid and antisteroid Fab fragments. Assays with the […]

[3] = target: anti-steroid (unprocessed rabbit serum 540); assay: Competitive inhibition of binding of [3H] triamcinolone to anti-steroid, unprocessed rabbit serum 540; conditions: for Kd: read-out: Competitive inhibition of binding of [3H] triamcinolone, Rabbit Serum 540 Unprocessed (apparent Kd)
Method: FIG. 4. […] See legend to Table 1 for the experimental procedure.
New Zealand white rabbits were immunized by multiple intradermal injections of a total of 1 ml of triamcinolone-BSA (2 mg/ml) in saline emulsified with an equal volume of complete Freunds adjuvant. Booster injections were given three weeks later and then at monthly intervals. Animals were bled bi-weekly from the ear vein and the sera stored at 4° C. until required.

[4] = target: T1, binding of 8G11-C6 to partially purified glucocorticoid receptor (Rattus norvegicus, UniProt P06536); assay: ELISA inhibition of binding of 8G11-C6 to partially purified glucocorticoid receptor; conditions: ELISA (FIG. 11)
T1 construct: the glucocorticoid receptor was partially purified from rat liver cytosol; from tissue; host or cells: liver cytosol of Sprague-Dawley rats, receptor partially purified by the cited method of Gametchu & Harrison
T1 sequence (P06536 1-795): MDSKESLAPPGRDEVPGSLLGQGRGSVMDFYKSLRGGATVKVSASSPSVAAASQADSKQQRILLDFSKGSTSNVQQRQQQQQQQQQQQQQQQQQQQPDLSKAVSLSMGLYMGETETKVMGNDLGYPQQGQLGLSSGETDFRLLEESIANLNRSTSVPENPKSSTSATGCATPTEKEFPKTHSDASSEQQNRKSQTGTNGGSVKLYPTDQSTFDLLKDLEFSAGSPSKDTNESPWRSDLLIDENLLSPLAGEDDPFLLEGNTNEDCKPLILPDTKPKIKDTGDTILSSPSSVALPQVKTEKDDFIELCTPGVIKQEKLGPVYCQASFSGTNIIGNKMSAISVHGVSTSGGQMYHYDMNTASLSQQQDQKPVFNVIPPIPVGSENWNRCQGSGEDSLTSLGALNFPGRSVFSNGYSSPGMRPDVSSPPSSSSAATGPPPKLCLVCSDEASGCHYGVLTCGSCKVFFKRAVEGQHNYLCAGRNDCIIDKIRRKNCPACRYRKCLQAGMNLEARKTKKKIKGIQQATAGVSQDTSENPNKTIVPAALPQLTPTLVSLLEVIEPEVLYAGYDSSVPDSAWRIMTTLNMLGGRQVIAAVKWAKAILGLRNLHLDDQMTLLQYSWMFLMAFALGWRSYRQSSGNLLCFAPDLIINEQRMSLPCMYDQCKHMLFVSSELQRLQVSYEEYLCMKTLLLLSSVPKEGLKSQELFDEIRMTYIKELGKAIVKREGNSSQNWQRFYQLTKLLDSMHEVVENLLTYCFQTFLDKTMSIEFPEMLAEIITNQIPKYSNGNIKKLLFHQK
Method: FIG. 11. […] 200 microliters containing 0.54 micrograms protein of a partially purified receptor preparation in 0.1M NaHC03 pH 9.3 was added to the wells of polystyrene plates. These were incubated for 2 hrs at 37° C. Washed 2×with PBS […] 0.02% tween. […] See methods for the methodology employed. The inhibitors used were triamcinolone acetonide ( ), rabbit serum albumin ( ), and triamcinolone - RSA ( ).

[5] = test system: binding of 8G11-C6 to anti-steroid Fab fragments; assay: ELISA inhibition of binding of 8G11-C6 to anti-steroid Fab fragments; conditions: ELISA (FIGS. 7, 8, 9)
Method: Controls with no inhibitor were included.
FIG. 9. […] The method used was similar to that described in the exerimental procedure. […] 200λ of the incubation mixture was then added to microtiter wells previously coated with 10 ng anti-steroid Fab fragments and incubated for 2 hrs at 37° C.
The presence of anti-idiotypic antibodies in the hybridoma culture medium were assayed by a double antibody sandwich ELISA. […] After washing twice with 0.01 M phosphate buffer--0.14M NaCl, pH 7.4, containing 0.05% Tween-20 (PBS-Tween), the culture medium from the hybridomas was added and incubated at 37° C. for 2 hrs. The wells were washed three times with PBS-Tween and 200 microliters of 1:3,000 dilution in PBS-Tween of goat anti-mouse 1gM-1gG horseradish peroxidase (Tago) was added. After incubating 1 hr at 37°, the wells were washed three times with PBS-tween and 200 microliters substrate (7 mg o-phenylenediamine dichloride in 10 ml 0.1 M citrate-phosphate buffer, pH 4.8 containing 5 microliters of 30% H2 O2) was added. Depending on the intensity of the color, the reaction was stopped after 5-10 min by the addition of 50 microliters 8N H2 SO4 and the OD determined (Titretek) at 492 nm.

glucocorticoid receptor = target: T2, glucocorticoid receptor (Rattus norvegicus, UniProt P06536)
T2 sequence (P06536 1-795): T1 sequence (P06536 1-795)
Method: Incubate in a total volume of 500 microliters, for 2 hrs at 4° C. 20 mM HEPES buffer containing 50 mM NaCl, 1 mM EDTA, 10% glycerol 0.1 mM DTT pH 7.6, 10nM [3H]TA and 200 microliters rat liver cytosol. Add 250 microliters 5% charcoal/dextran solution and after 10 min centrifuge and determine the radioactivity in 200 λaliquot.
Four to 6 days after 150-200 g Sprague-Dawley male rats were adrenalectomized, they were anesthesized with ether and the livers perfused in situ through the portal vein with 50 ml of cold saline. The livers were then removed, homogenized with a Teflon-glass homogenizer in 1.1 volume of 10 mM HEPES, containing 50 mM NaCl, 1 mM Na2 EDTA, 1 mM dithiothreitol (DTT) and 10% glycerol, pH 7.6, and centrifuged for 1 hr at 250,000 g at 4° C. The upper fatty layer was discarded. The supernatant was either frozen immediately in liquid-nitrogen and used for assays or labeled by incubating with 75 nM [^3 H]triamcinolone acetonide for 2 hrs at 4° C. Unbound steroid was removed with 5% dextran-coated charcoal. The [^3 H]TA labeled glucocorticoid receptor was partially purified by the method described by Gametchu & Harrison (9), the only modification being that the phosphocellulose was omitted from the first purification step.
glucocorticoid receptor included 100 ml of rat liver cytosol. 10^-8 M
[^3 H]TA and increasing concentrations of steroid in a total volume o
200 ml. […]

[6] = target: Fab fragments of affinity purified anti-steroid antibodies; assay: Scatchard plot of binding of labeled steroid to Fab fragments of affinity purified anti-steroid antibodies; set-up: species or system rabbit; conditions: curved plot with [3H]TA, linear plot with [3H]-dexamethasone; read-out: Kd for Fab fragments of the anti-steroid, from Scatchard plots
Method: FIG. 3. Scatchard plot of the binding of [^3 H] triamcinolone to Fab fragments of affinity purified anti-steroid antibodies. Fab fragments (0.227 micrograms) were incubated with increasing concentrations of [^3 H] triamcinolone (0.4-62.5nM) in the presence of 0.01M phosphate buffered saline pH 7.4 containing 0.1% gelatin in a total volume of 200 microliters. Total and non-specific binding (50 micromoles triamcinolone acetonide) were determined for each of the [^3 H] triamcinolone levels and all points were in duplicate. After incubating 1 hr at room temperature, add 1 ml cold 5% charcoal/dextran (diluted 1:40 in 0.01M PBS containing 0.1% gelatin) and let stand on ice for 10 min. Centrifuge down the charcoal/dextran, decant the supernatant into scintillation vials and determine the radioactivity.

| Compound | Kd [1] [µM] | Kd [2] [µM] | Kd [3] [µM] | effect on the binding of 8G11-C6 to anti-steroid Fab fragments [5] | also measured |
| --- | --- | --- | --- | --- | --- |
| C[C@]12C[C@H](O)[C@H]3[C@@H](CCC4=CC(=O)CC[C@@]43C)[C@@H]1CC[C@@H]2C(=O)CO [Corticosterone] | 100 | 100 | 630 | – | – |
| CC(=O)[C@H]1CC[C@H]2[C@@H]3CCC4=CC(=O)CC[C@]4(C)[C@H]3CC[C@]12C [Progesterone] | 100 | 100 | 100 | – | – |
| C[C@]12CC[C@@H]3c4ccc(O)cc4CC[C@H]3[C@@H]1CC[C@@H]2O [estradiol-17β] | – | – | – | Neither triamcinolone, nor other steroids such as testosterone and estradiol-17β had any effect | effect on the binding of 8G11-C6 to partially purified glucocorticoid receptor [4]: no effect |
| rabbit serum albumin: carrier protein tested alone as inhibitor | – | – | – | did not affect | – |
| C[C@@H]1C[C@H]2[C@@H]3CCC4=CC(=O)C=C[C@]4(C)[C@@]3(F)[C@@H](O)C[C@]2(C)[C@@]1(O)C(=O)CO [Dexamethasone] | 0.63 | 0.62 | 0.12 | – | – |
| C[C@]12CC[C@H]3[C@@H](CCC4=CC(=O)CC[C@@]43C)[C@@H]1CC[C@@H]2O [Testosterone] | – | – | – | Neither triamcinolone, nor other steroids such as testosterone and estradiol-17β had any effect | effect on the binding of 8G11-C6 to partially purified glucocorticoid receptor [4]: only a slight inhibitory effect; Competitive inhibition of binding of [3H] triamcinolone, Affinity purified (apparent Kd) [2]: not inhibited; Competitive inhibition of binding of [3H] triamcinolone, Rabbit Serum 540 Unprocessed (apparent Kd) [3]: not inhibited |
| C[C@]12CCC(=O)C=C1CC[C@@H]1[C@@H]2[C@@H](O)C[C@@]2(C)[C@H]1CC[C@]2(O)C(=O)CO [Hydrocortisone] | 100 | 100 | 5 | – | – |
| triamcinolone | 0.015 | 0.015 | 0.0032 | Neither triamcinolone, nor other steroids such as testosterone and estradiol-17β had any effect | Kd (glucocorticoid receptor): 0.005 µM |
| CC1(C)O[C@@H]2C[C@H]3[C@@H]4CCC5=CC(=O)C=C[C@]5(C)[C@@]4(F)[C@@H](O)C[C@]3(C)[C@]2(C(=O)CO)O1 [triamcinolone acetonide] | – | – | – | did not affect | – |
| [3H]C1C2=CC(=O)C=C[C@]2(C)[C@@]2(F)[C@@H](O)C[C@@]3(C)[C@@H](C[C@@H](C)[C@]3(O)C(=O)CO)[C@@H]2C1[3H] (stereo partly drawn) [[^3 H]-dexamethasone, 6,7[^3 H] dexamethasone] | – | – | – | – | Kd [6]: 0.15 µM |
| C[C@]12CCC(=O)C[C@@H]1CC[C@@H]1[C@@H]2CC[C@]2(C)[C@@H](O)CC[C@@H]12 [Dihydrotestosterone] | – | – | – | – | Competitive inhibition of binding of [3H] triamcinolone, Rabbit Serum 540 Unprocessed (apparent Kd) [3]: had no effect |
